Experimental data as given in patent publication US4291021A, “Novel macrolide antibiotics and preparation thereof” (Toyo Jozo Company, Ltd., priority 1978, dated 1981).

What was measured:
[1] = system: Staphylococcus aureus (ATCC 6538 P); test: antibacterial spectrum, agar dilution method; assay type: cell-based; settings: S. aureus ATCC 6538 P, 10^8 x1
Mycoplasma synoviae = test: anti-mycoplasmal spectrum, agar dilution method; assay type: cell-based; settings: 10^8 x1
[2] = system: Shigella flexneri type 3a; test: antibacterial spectrum, agar dilution method; assay type: cell-based; settings: 10^8 x1
[3] = system: Streptococcus pyogenes (N.Y.5); test: antibacterial spectrum, agar dilution method; assay type: cell-based; settings: S. pyogenes N.Y.5, 10^8 x1
[4] = system: Corynebacterium diphtheriae (P.W.8); test: antibacterial spectrum, agar dilution method; assay type: cell-based; settings: 10^8 x1
[5] = system: Salmonella typhosa (E 901); test: antibacterial spectrum, agar dilution method; assay type: cell-based; settings: 10^8 x1
[6] = system: Klebsiella pneumoniae (ATCC 10031); test: antibacterial spectrum, agar dilution method; assay type: cell-based; settings: 10^8 x1
[7] = system: Staphylococcus aureus (0116); test: antibacterial spectrum, agar dilution method; assay type: cell-based; settings: S. aureus 0116, 10^8 x1
[8] = system: Staphylococcus aureus (0127); test: antibacterial spectrum, agar dilution method; assay type: cell-based; settings: S. aureus 0127, 10^8 x1
[9] = system: Sarcina lutea (ATCC 9341); test: antibacterial spectrum, agar dilution method; assay type: cell-based; settings: 10^8 x1
Mycoplasma gallisepticum = test: anti-mycoplasmal spectrum, agar dilution method; assay type: cell-based; settings: 10^8 x1
[10] = system: Streptococcus faecalis (1501); test: antibacterial spectrum, agar dilution method; assay type: cell-based; settings: S. faecalis 1501, 10^8 x1
[11] = system: Staphylococcus epidermidis (s.p.-al-l); test: antibacterial spectrum, agar dilution method; assay type: cell-based; settings: 10^8 x1
[12] = system: Escherichia coli (NIHJ-JC2); test: antibacterial spectrum, agar dilution method; assay type: cell-based; settings: E. coli NIHJ-JC2, 10^8 x1
[13] = system: Staphylococcus aureus (MS 353 AO); test: antibacterial spectrum, agar dilution method; assay type: cell-based; settings: S. aureus MS 353 AO, 10^8 x1
solubility = assay type: physicochemical
[14] = system: Staphylococcus aureus (0119); test: antibacterial spectrum, agar dilution method; assay type: cell-based; settings: S. aureus 0119, 10^8 x1
[15] = system: Staphylococcus aureus (MS 353 C36); test: antibacterial spectrum, agar dilution method; assay type: cell-based; settings: S. aureus MS 353 C36, 10^8 x1
[16] = system: Staphylococcus aureus (MS 353); test: antibacterial spectrum, agar dilution method; assay type: cell-based; settings: S. aureus MS 353, 10^8 x1
Shigella sonney (E 33) = test: antibacterial spectrum, agar dilution method; assay type: cell-based; settings: 10^8 x1
[17] = system: Micrococcus flavus (ATCC 10240); test: antibacterial spectrum, agar dilution method; assay type: cell-based; settings: 10^8 x1
[18] = system: Salmonella enteritidis gertner; test: antibacterial spectrum, agar dilution method; assay type: cell-based; settings: 10^8 x1
Serratia marcescence = test: antibacterial spectrum, agar dilution method; assay type: cell-based; settings: 10^8 x1
[19] = system: Streptococcus agalactiae (1020); test: antibacterial spectrum, agar dilution method; assay type: cell-based; settings: S. agalactiae 1020, 10^8 x1
Proteus vulgaris (OX19) = test: antibacterial spectrum, agar dilution method; assay type: cell-based; settings: 10^8 x1
[20] = system: Pseudomonas aeruginosa (IAM 1095); test: antibacterial spectrum, agar dilution method; assay type: cell-based; settings: 10^8 x1
[21] = system: Streptococcus pyogenes (1022); test: antibacterial spectrum, agar dilution method; assay type: cell-based; settings: S. pyogenes 1022, 10^8 x1
[22] = system: Bacillus subtilis (ATCC 6633); test: antibacterial spectrum, agar dilution method; assay type: cell-based; settings: 10^8 x1
Escherichia coli (B) = test: antibacterial spectrum, agar dilution method; assay type: cell-based; settings: E. coli B, 10^8 x1
acidic or basic nature = assay type: physicochemical

## CC[C@H]1OC(=O)/C=C/[C@H](C)[C@@H](O[C@@H]2O[C@H](C)C[C@H](N(C)C)[C@H]2O)[C@@H](C)C[C@@H](C)C(=O)/C=C/[C@@H]2O[C@H]2[C@]1(O)CO[C@@H]1O[C@H](C)[C@@H](O)[C@@H](OC)[C@H]1OC [A 11725 II]
[1]
  Minimum growth inhibitory concentration: 0.2 µg/mL
Mycoplasma synoviae
  Minimum growth inhibitory concentration: 0.8 µg/mL
[2]
  Minimum growth inhibitory concentration: 50 µg/mL
[3]
  Minimum growth inhibitory concentration: ≤ 0.05 µg/mL
[4]
  Minimum growth inhibitory concentration: 0.4 µg/mL
[5]
  Minimum growth inhibitory concentration: > 100 µg/mL
[6]
  Minimum growth inhibitory concentration: 25 µg/mL
[7]
  Minimum growth inhibitory concentration: > 100 µg/mL
[8]
  Minimum growth inhibitory concentration: > 100 µg/mL
[9]
  Minimum growth inhibitory concentration: ≤ 0.05 µg/mL
Mycoplasma gallisepticum
  Minimum growth inhibitory concentration: 0.03 µg/mL
[10]
  Minimum growth inhibitory concentration: > 100 µg/mL
[11]
  Minimum growth inhibitory concentration: 0.1 µg/mL
[12]
  Minimum growth inhibitory concentration: > 100 µg/mL
[13]
  Minimum growth inhibitory concentration: > 100 µg/mL
solubility; similar to A 11725 I
  Solubility compared with A 11725 I: Similar
[14]
  Minimum growth inhibitory concentration: > 100 µg/mL
[15]
  Minimum growth inhibitory concentration: 0.1 µg/mL
[16]
  Minimum growth inhibitory concentration: 0.2 µg/mL
Shigella sonney (E 33)
  Minimum growth inhibitory concentration: > 100 µg/mL
[17]
  Minimum growth inhibitory concentration: 0.2 µg/mL
[18]
  Minimum growth inhibitory concentration: > 100 µg/mL
Serratia marcescence
  Minimum growth inhibitory concentration: > 100 µg/mL
[19]
  Minimum growth inhibitory concentration: 6.3 µg/mL
Proteus vulgaris (OX19)
  Minimum growth inhibitory concentration: 50 µg/mL
[20]
  Minimum growth inhibitory concentration: > 100 µg/mL
[21]
  Minimum growth inhibitory concentration: > 100 µg/mL
[22]
  Minimum growth inhibitory concentration: 0.4 µg/mL
Escherichia coli (B)
  Minimum growth inhibitory concentration: 25 µg/mL
Acidic or basic nature
  Acidic or basic nature: Basic

## CC[C@H]1OC(=O)/C=C/[C@H](C)[C@@H](O[C@@H]2O[C@H](C)C[C@H](N(C)C)[C@H]2O)[C@@H](C)C[C@@H](C)C(=O)/C=C/C2OC2[C@@H]1CO[C@@H]1O[C@H](C)[C@@H](O)[C@@H](OC)[C@H]1OC (stereo partly drawn) [A 11725 I]
[1]
  Minimum growth inhibitory concentration: 0.2 µg/mL
Mycoplasma synoviae
  Minimum growth inhibitory concentration: 0.03 µg/mL
[2]
  Minimum growth inhibitory concentration: 100 µg/mL
[3]
  Minimum growth inhibitory concentration: ≤ 0.05 µg/mL
[4]
  Minimum growth inhibitory concentration: 0.4 µg/mL
[5]
  Minimum growth inhibitory concentration: > 100 µg/mL
[6]
  Minimum growth inhibitory concentration: 25 µg/mL
[7]
  Minimum growth inhibitory concentration: > 100 µg/mL
[8]
  Minimum growth inhibitory concentration: > 100 µg/mL
[9]
  Minimum growth inhibitory concentration: ≤ 0.05 µg/mL
Mycoplasma gallisepticum
  Minimum growth inhibitory concentration: 0.006 µg/mL
[10]
  Minimum growth inhibitory concentration: > 100 µg/mL
[11]
  Minimum growth inhibitory concentration: 0.1 µg/mL
[12]
  Minimum growth inhibitory concentration: > 100 µg/mL
[13]
  Minimum growth inhibitory concentration: > 100 µg/mL
solubility; acidic water, methanol, acetone, ethyl acetate, benzene
  Solubility in acidic water and organic solvents: Soluble
[14]
  Minimum growth inhibitory concentration: > 100 µg/mL
[15]
  Minimum growth inhibitory concentration: ≤ 0.05 µg/mL
[16]
  Minimum growth inhibitory concentration: 0.2 µg/mL
Shigella sonney (E 33)
  Minimum growth inhibitory concentration: > 100 µg/mL
[17]
  Minimum growth inhibitory concentration: ≤ 0.05 µg/mL
[18]
  Minimum growth inhibitory concentration: > 100 µg/mL
Serratia marcescence
  Minimum growth inhibitory concentration: > 100 µg/mL
[19]
  Minimum growth inhibitory concentration: 12.5 µg/mL
Proteus vulgaris (OX19)
  Minimum growth inhibitory concentration: 100 µg/mL
[20]
  Minimum growth inhibitory concentration: > 100 µg/mL
[21]
  Minimum growth inhibitory concentration: > 100 µg/mL
[22]
  Minimum growth inhibitory concentration: 0.4 µg/mL
Escherichia coli (B)
  Minimum growth inhibitory concentration: 100 µg/mL
Acidic or basic nature
  Acidic or basic nature: Basic
